Laboratory results reported in publication PMC8998618, “A Pharmacokinetic and Metabolism Study of the TRPC6 Inhibitor SH045 in Mice by LC-MS/MS” (International Journal of Molecular Sciences, 2022).

Experiments:
[1] = detection of SH045 metabolites in MLM, HLM and mouse urine by LC-MS/MS; type: in vitro ADME, mouse and human; conditions: metabolite of SH045 detected in MLM, HLM (NADPH, UDPGA) and/or mouse urine after 20 mg/kg BW i.v.
Procedure: To explore metabolites of SH045 formed by microsomes, DPBS, alamethicin (25 µg/mL) and MLM or HLM (1.0 mg/mL) were pre-incubated, further incubated with SH045 MgCl2, NADPH and UDPGA, terminated, and processed for LC-MS/MS analysis as described. Positive controls with testosterone and 4-nitrophenol and negative controls were analyzed too (Supplementary Materials SM7).
Larixyl-N-methylcarbamate ((1S,4S,4aR,8aS)-4-((S)-3-hydroxy-3-methylpent-4-en-1-yl)-4a,8,8-trimethyl-3-methylenedeca-hydro-naphthalen-1-yl methylcarbamate, SH045, TRPC6 inhibitor) was synthesized as described by Häfner et al. [1]. (+)-Larixol (internal standard, IS) was isolated from Larix decidua turpentine [2]. Kolliphor® EL was obtained from Caelo (Hilden, Germany). […]
SM2 Quantification of SH045 by HPLC and tandem mass spectrometric methods (LC-MS/MS) In brief, chromatographic separation was achieved using a Zorbax Eclipse XDB-C8 column (100 × 3.0 mm, 3.5 μm 80 Å, Agilent Technologies) with linear gradient elution using water and ACN, each with 0.1 % formic acid as additive, during a total run time of 20 min. For quantification (+)-larixol was used as IS. […] Freshly prepared calibration samples for SH045 in plasma and tissue comprised eight concentration levels analyzed in duplicates (2, 5, 10, 100, 200, 800, 1200 and 1600 ng/mL). […]

TRPC6 = conditions: Ca^2+ influx assays; cited from earlier work
[2] = system: FSGS-related TRPC6 channel mutants, including M132T and R175Q; design: method as in PMID 28800680; conditions: including M132T and R175Q variants; cited from earlier work

Row | Occurrence [1] | SMILES | IC50 (TRPC6) [nM] | inhibition of FSGS-related TRPC6 channel mutants [2]
1 | MLM, HLM | CC[C@@](C)(O)CC[C@H]1C(C)C[C@H](OC(=O)NC)[C@H]2C(C)(C)CCC[C@]12C (some centres unmarked) [M2a] | – | –
2 | MLM, HLM | C=C[C@](C)(CC[C@H]1C(=C)C[C@H](OC(=O)NC)[C@H]2C(C)(C)CCC[C@]12C)O[C@@H]1O[C@H](C(=O)O)[C@@H](O)[C@H](O)[C@H]1O [M8a] | – | –
3 | – | C=CC(C)(O)CCC1C(=C)CC(OC(C)=O)C2C(C)(C)CCCC12C (centres unmarked) [larixyl monoacetate] | ~500 | –
4 | – | C=CC(C)(O)CCC1C(=C)CC(OC(N)=O)C2C(C)(C)CCCC12C (centres unmarked) [larixyl-6-carbamate] | ~500 | strong inhibitor
